Results taken from US20040186066A1, “Method of treatment with nelfinavir” (AGOURON PHARMACEUTICALS, INC., priority 2003, published 2004).
Marks after values point to notes of the source that are not given here.

Tests used:
[1] = Example 1: phase I crossover food-effect study, single-dose pharmacokinetics of nelfinavir 250 mg tablets (total kilocalories and fat); type: in vivo, human (normal healthy volunteers); details: for bioavailability of M8 higher relative to fasting, based on AUC(0-∞): M8 after 1250 mg nelfinavir
Protocol: A phase I, randomized, open-label crossover study to evaluate the impact of total kilocalories and fat content on single-dose pharmacokinetic parameters of the nelfinavir 250 mg tablet formulation in normal healthy volunteers was performed. Healthy volunteers entered the study and received the following treatment in random order at least 1 week apart: 1) 5×250 mg nelfinavir tablets, fasted 2) 5×250 mg nelfinavir tablets (breakfast meal 1, 125 Kcal/20% fat=low cal/low fat) 3) 5×250 mg nelfinavir tablets (breakfast meal 2, 500 Kcal/20% fat=medium cal/low fat) 4) 5×250 mg nelfinavir tablets (breakfast meal 3, 1000 Kcal/50% fat=high cal/high fat). Plasma concentrations of nelfinavir and its active hydroxy-t-butylamide metabolite (M8) were measured by validated high performance liquid chromatography (HPLC) methods. Pharmacokinetic parameters were determined from plasma concentration-time data using standard methods. Nelfinavir was administered as five 250-mg tablets with 240 mL of water. All subjects received a standardized snack the evening they were admitted to the in-patient facility. For the fasting evaluation, subjects were required to complete an overnight fast of at least 10 hours prior to dosing in the morning. For the fed pharmacokinetic evaluations, subjects were required to complete an overnight fast of at least 10 hours, prior to receiving the protocol-specific standardized breakfast meal (that is, Meal 1, Meal 2, or Meal 3). Subjects were given 30 minutes to complete their standardized breakfast meal. Dosing was performed in the morning, immediately following the subject's completion of the standardized breakfast meal and after the subject's pre-dose pharmacokinetic specimen had been collected. Subjects could not ingest water 1 hour prior to or 1 hour after dosing. A standardized lunch was given at least 4 hours after the morning dose and a standardized dinner was given at least 10 hours after the morning dose. For pharmacokinetic sampling, blood samples, 5 mL each, were collected into heparinized vacuum tubes (green top tubes) via an indwelling catheter or direct venipuncture. The actual time of each collection was recorded on the source document. The timing of each sample collection was as follows: predose and at 0.5, 1, 2, 3, 4, 6, 8, and 12 hours postdose on Days 1, 8,15, and 22. Pharmacokinetic parameter values were calculated using WinNonlin Pro Version 2.1. Individual nelfinavir plasma concentrations were used to predict steady-state plasma concentrations during BID administration with meals of various Kcal content. WinNonlin Pro Version 3.2 noncompartmental superposition was used for this simulation. Predicted steady-state Cmax and Cmin values were compared.

[2] = Example 2: phase 1 crossover 3×3 study, fixed kilocalorie meal at 20% and 50% fat, single-dose pharmacokinetics of nelfinavir 250 mg tablets; type: in vivo, human (normal, healthy volunteers)
Protocol: A study was conducted as a phase 1, randomized, open-label, crossover 3×3 study, designed to evaluate the impact of a fixed kilocalorie meal at 20% and 50% fat content on single-dose pharmacokinetic parameters of the nelfinavir 250 mg tablet formulation in normal, healthy volunteers. Subjects were dosed with 1250 mg of nelfinavir 3 times at one-week intervals and 24-hour PK profiles were collected following each of the doses. Each subject was assigned three meals with different fat contents prior to dosing (fasting, 500kcal with 20% fat, 500 kcal with 50% fat) using a Latin square design. Twenty-four subjects entered the study and twenty-two subjects completed it. Each subject received the following treatment in random order on Days 1, 8 and 15: 5×250 mg nelfinavir tablets with fasting; 5×250 mg nelfinavir tablets, with a meal comprising 500Kcal/20% fat; and 5×250 mg nelfinavir tablets with a meal having 500 Kcal/50% fat. The moderate calorie/low fat meal consisted of 500 Kcal with 20% fat (11.3 grams of fat). The moderate calorie/high fat meal consisted of 500 Kcal with 50% fat (27.8 grams of fat). Subjects were administered nelfinavir 1250-mg (five 250-mg tablets) on the morning of the pharmacokinetic evaluations. The nelfinavir terminal half-life (t½) in plasma is typically 3.5 to 5 hours. […] Subjects participated on an outpatient basis; however, subjects were admitted to the in-patient facility the evening prior to each PK evaluation and remained in the in-patient facility for approximately 16 hours post-dosing. The subjects returned the next morning (8 hours later) for their last 24 hr. pharmacokinetic blood draw. All pharmacokinetic evaluations were performed in the in-patient facility. Blood samples were collected and analyzed for plasma concentrations of nelfinavir and M8. For the fasting evaluation, subjects were required to complete an overnight fast of at least 10 hours prior to dosing in the morning. For the fed PK evaluations, subjects were required to complete an overnight fast of at least 10 hours, prior to receiving the protocol-specific standardized breakfast meal. Subjects were given 30 minutes to complete their standardized breakfast meal. Dosing was performed in the morning, immediately following the subject's completion of the standardized breakfast meal and after the subject's predose PK specimen had been collected. Subjects could not ingest water 1 hour prior to or 1 hour after dosing. A standardized lunch was given at least 4 hours after the morning dose and a standardized dinner was given at least 10 hours after the morning dose. Actual sampling times were used for all data evaluation. Mean Cmax and AUC values were calculated as the antilogs of least-squares mean log-transformed values (analogous to geometric means). Ratios and confidence intervals for Cmax and AUC values are also based on log-transformed values. Mean values for all other pharmacokinetic parameters are least-squares means. Ratios and confidence intervals for these parameters are based on untransformed values. Blood samples, 5 mL each, were collected as in Example 1. The timing of each sample collection was as follows: Predose and at 0.5, 1, 2, 3, 4, 6, 8, 12, 16 and 24 hours postdose on Days 1, 8, and 15. All blood samples were kept at […] (using either wet ice or cryoblock) until centrifugation. Blood samples were centrifuged within 1 hour of collection, at 3000 rpm (approximately 2619×g) for 15 minutes, to separate the plasma. The plasma samples were split evenly into 2 aliquots and stored in appropriately labeled polypropylene transport tubes. Plasma was stored frozen at […] or lower until analysis. Pharmacokinetic parameter values were calculated from plasma nelfinavir and M8 concentration-time data using standard noncompartmental pharmacokinetic methods as in Example 1. Plasma concentrations of nelfinavir and M8 were measured by validated high-performance liquid chromatography (HPLC) methods. […]

[3] = with increasing food intake; cited from earlier work
[4] = M8 after 1250-mg nelfinavir oral dose, fasting (reference)
[5] = M8 after 1250-mg nelfinavir with high calorie/high fat/high protein meal
[6] = M8 after 1250-mg nelfinavir with low calorie/low fat/low protein meal
[7] = M8 after 1250-mg nelfinavir with moderate calorie/low fat/moderate protein meal
[8] = high calorie/high fat/high protein meal vs fasting
[9] = low calorie/low fat/low protein meal vs fasting
[10] = moderate calorie/low fat/moderate protein meal vs fasting

M8 AUCinf/NFV AUCinf (%) ([1]; 1250 mg nelfinavir single oral dose, fasting): 26.5%
bioavailability of M8 higher relative to fasting, based on AUC(0-∞) ([1]; high calorie meal (1000 Kcal)): 4.1 fold
bioavailability of M8 higher relative to fasting, based on AUC(0-∞) ([1]; low calorie meal (125 Kcal)): 1.3 fold
bioavailability of M8 higher relative to fasting, based on AUC(0-∞) ([1]; moderate calorie meal (500 Kcal)): 1.8 fold
M8 AUC(0-tlqc), least-squares mean [1, 4]: 0.655^a μg · hr/mL
M8 AUC(0-∞), least-squares mean [1, 4]: 2.81^c μg · hr/mL
M8 t1/2, least-squares mean [1, 4]: 2.68^c hr
M8 tmax, least-squares mean [1, 4]: 3.45^b hr
M8 AUC(0-tlqc), least-squares mean [1, 5]: 7.58^g μg · hr/mL
M8 AUC(0-∞), least-squares mean [1, 5]: 11.5^a μg · hr/mL
M8 Cmax, least-squares mean [1, 5]: 1.28^g μg/mL
M8 t1/2, least-squares mean [1, 5]: 3.90^a hr
M8 tmax, least-squares mean [1, 5]: 5.01^a hr
M8 AUC(0-tlqc), least-squares mean [1, 6]: 2.01^d μg · hr/mL
M8 AUC(0-∞), least-squares mean [1, 6]: 3.66^f μg · hr/mL
M8 Cmax, least-squares mean [1, 6]: 0.533^d μg/mL
M8 t1/2, least-squares mean [1, 6]: 2.40^f hr
M8 tmax, least-squares mean [1, 6]: 3.88^e hr
M8 AUC(0-tlqc), least-squares mean [1, 7]: 3.46^a μg · hr/mL
M8 AUC(0-∞), least-squares mean [1, 7]: 5.11^e μg · hr/mL
M8 Cmax, least-squares mean [1, 7]: 0.693^a μg/mL
M8 t1/2, least-squares mean [1, 7]: 2.96^e hr
M8 tmax, least-squares mean [1, 7]: 4.49^a hr
M8 Cmax, least-squares mean ([1]; M8 in plasma after 1250-mg nelfinavir oral dose, fasting (reference)): 0.228^a μg/mL
M8 AUC/nelfinavir AUC ([1]; fed state): 15-21%
M8 AUCinf/NFV AUCinf (%) ([1]; food intake 125 kcal/20% fat): 15.8%
M8 AUCinf/NFV AUCinf (%) ([1]; food intake 500 kcal/20% fat): 15.3%
M8 AUCinf/NFV AUCinf (%) ([1]; food intake 1000 kcal/50% fat): 20.8%
M8 AUC(0-tlqc) ratio (100% × test/reference) [1, 8]: 1157%
M8 AUC(0-∞) ratio (100% × test/reference) [1, 8]: 408%
M8 Cmax ratio (100% × test/reference) [1, 8]: 562%
M8 t1/2 ratio (100% × test/reference) [1, 8]: 145%
M8 tmax ratio (100% × test/reference) [1, 8]: 145%
M8 AUC(0-tlqc) ratio (100% × test/reference) [1, 9]: 343%
M8 AUC(0-∞) ratio (100% × test/reference) [1, 9]: 130%
M8 Cmax ratio (100% × test/reference) [1, 9]: 234%
M8 t1/2 ratio (100% × test/reference) [1, 9]: 89.4%
M8 tmax ratio (100% × test/reference) [1, 9]: 113%
M8 AUC(0-tlqc) ratio (100% × test/reference) [1, 10]: 529%
M8 AUC(0-∞) ratio (100% × test/reference) [1, 10]: 182%
M8 Cmax ratio (100% × test/reference) [1, 10]: 304%
M8 t1/2 ratio (100% × test/reference) [1, 10]: 110%
M8 tmax ratio (100% × test/reference) [1, 10]: 130%
M8 AUC∞/Nelfinavir AUC∞(%) ([2]; 1250 mg nelfinavir single dose, fasting): 8.6%
M8 AUC∞/Nelfinavir AUC∞(%) ([2]; Kcal/Fat % 500/20%): 8.7%
M8 AUC∞/Nelfinavir AUC∞(%) ([2]; Kcal/Fat % 500/50%): 11.4%
mean M8 AUC(0-∞) higher relative to fasting subjects ([2]; test meal containing 20% fat): 3 fold
mean M8 AUC(0-∞) higher relative to fasting subjects ([2]; test meal containing 50% fat): 6.8 fold
percentage of M8 relative to nelfinavir ([2]; remained the same with increasing fat intake): around 10%
SMILES: Cc1c(O)cccc1C(=O)N[C@@H](CSc1ccccc1)[C@H](O)CN1C[C@H]2CCCC[C@H]2C[C@H]1C(=O)NC(C)(C)CO [M8]
M8 concentrations relative to nelfinavir [3]: 15-20%
